Measured values published in patent US5434132A, “Neuropeptide antagonists” (Imperial Cancer Research Technology, Ltd., priority 1988, dated 1995).
Like-named read-outs stand apart in the source and are kept apart here. Non-standard residues stand in square brackets, D forms with d. Residues, ends and D or L forms follow the SMILES beside them. No end group written: not given here. *: point of attachment. X1 = CC(C)C[C@@H](CN[C@@H](CC(C)C)C(N)=O)N*; pGlu = O=C1CC[C@@H](C(=O)O)N1

Assays:
[1] = biological target: T1, Mr 75,000-85,000 glycoprotein component of the receptor (Mus musculus, UniProt P21729); test: Cross-linking of [125I]GRP to the Mr 75,000-85,000 glycoprotein in intact Swiss 3T3 cells; type: binding, murine; conditions: 1 nM [125I]GRP, 24° C.
T1 construct: endogenous in cells; host or cells: Swiss 3T3 cells (intact, confluent and quiescent)
T1 sequence (P21729 whole entry): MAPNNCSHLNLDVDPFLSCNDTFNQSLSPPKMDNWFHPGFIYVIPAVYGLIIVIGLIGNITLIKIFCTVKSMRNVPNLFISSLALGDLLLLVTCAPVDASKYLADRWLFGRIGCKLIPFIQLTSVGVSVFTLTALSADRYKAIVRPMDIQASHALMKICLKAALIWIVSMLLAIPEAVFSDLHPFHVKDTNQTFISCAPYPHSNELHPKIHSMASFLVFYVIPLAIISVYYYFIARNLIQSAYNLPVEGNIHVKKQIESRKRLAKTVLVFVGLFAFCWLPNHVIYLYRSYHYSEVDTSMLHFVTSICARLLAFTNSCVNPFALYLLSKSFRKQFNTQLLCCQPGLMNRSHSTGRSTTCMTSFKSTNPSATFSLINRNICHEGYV
Description: Methods: Swiss 3T3 cells were maintained in culture and assays of DNA synthesis performed as previously described 2,4,6 In all the figures, values shown represent the mean of at least 2 determinations. […] After 10 mins they were washed twice with binding medium, then incubated at 24° C. in 1 ml containing […] ethylene glycol bis(succinimidylsuccinate) at pH 7.4. After 10 mins they were washed twice with cold binding medium and solubilised in 100 μl sample buffer^8,then immediately boiled for 5 mins, and electrophoresed on a 10% polyacrylamide gel.

Swiss 3T3 cells [2] = tested on: Swiss 3T3 cells
Swiss 3T3 cells [3] = test: EGF receptor transmodulation elicited by GRP in Swiss 3T3 cells; type: cell-based, murine; conditions: 1 min
[4] = tested on: guinea pig pancreatic acini; conditions: read-out: 50% inhibition (IC50) of bombesin-stimulated amylase release; cited from earlier work
bombesin/GRP receptor [5] = biological target: T2, bombesin/GRP receptor (Mus musculus, UniProt P21729); test: [125I]GRP binding to intact Swiss 3T3 cells; parameters: species or system murine; conditions: 37° C.
T2 construct: Membrane protein (150 μg) prepared from Swiss 3T3 cells as described above; endogenous in cells; host or cells: Swiss 3T3 cells; membrane-enriched fraction prepared with 5 mM Mg2+
T2 sequence (P21729 whole entry): as above

Swiss 3T3 cells [6] = type: cell-based, murine
Swiss 3T3 cells [7] = tested on: Swiss 3T3 cells; remark: listed apart in the source
Swiss 3T3 cells [8] = test: Mitogenesis stimulated by VIP in Swiss 3T3 cells; type: cell-based, murine
Swiss 3T3 cells [9] = test: Vasopressin-induced DNA synthesis in Swiss 3T3 cells; type: cell-based, murine
Swiss 3T3 cells [10] = test: Ca2+ mobilisation elicited by GRP in Swiss 3T3 cells; type: cell-based, murine; conditions: 5 secs
Swiss 3T3 cells [11] = conditions: references 4,12,13; cited from earlier work
[12] = tested on: bombesin/GRP, bradykinin and vasopressin receptors; test: Mitogenic responses elicited through bombesin/GRP, bradykinin and vasopressin receptors; type: cell-based, murine
[13] = tested on: small cell lung cancer (SCLC) cell lines; test: Growth in vitro of small cell lung cancer (SCLC) cell lines
vasopressin receptor [14] = biological target: T3, vasopressin receptor (Mus musculus, UniProt Q62463); conditions: references 4,12,13; cited from earlier work
T3 construct: endogenous in cells; host or cells: Swiss 3T3 cells
T3 sequence (Q62463 whole entry): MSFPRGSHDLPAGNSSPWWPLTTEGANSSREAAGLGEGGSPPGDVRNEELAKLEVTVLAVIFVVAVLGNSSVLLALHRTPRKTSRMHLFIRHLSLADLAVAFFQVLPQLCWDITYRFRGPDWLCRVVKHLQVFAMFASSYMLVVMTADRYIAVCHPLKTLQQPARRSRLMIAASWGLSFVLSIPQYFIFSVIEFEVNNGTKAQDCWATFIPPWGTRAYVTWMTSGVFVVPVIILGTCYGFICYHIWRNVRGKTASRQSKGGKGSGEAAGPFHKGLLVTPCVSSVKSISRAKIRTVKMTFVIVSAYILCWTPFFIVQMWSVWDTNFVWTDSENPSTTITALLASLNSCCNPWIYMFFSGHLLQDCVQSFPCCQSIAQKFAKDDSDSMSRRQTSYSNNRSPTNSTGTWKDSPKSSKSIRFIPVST

Swiss 3T3 cells [15] = conditions: earlier patent application and references 10, 11; cited from earlier work
Swiss 3T3 cells [16] = test: Cytosolic Ca2+ concentration in Fura-2 loaded Swiss 3T3 cells; type: cell-based, murine; conditions: Fura-2 loaded cells
bombesin/GRP receptor [17] = biological target: T2, bombesin/GRP receptor; test: 125I-GRP binding to membrane preparations of Swiss 3T3 cells; parameters: species or system murine; conditions: addition at 1μM; 0.5 nM 125I-GRP, 37° C., 10 minutes; None 305 ± 9; mean±SEM, n=3
Description: Membrane preparation: Cultures in roller bottles were washed twice with 150 ml phosphate buffered saline (PBS) (0.14M NaCl, 5 mM KCl, 0.01M Na2 HPO4, 1.8 mM KH2 PO4; pH 7.2) at room temperature. The cells were then harvested at 4° C. by scraping into ice cold PBS containing 5 mM MgCl2, 1 mM [ethylenebis(oxyethylenenitrilo)]tetraacetic acid (EGTA), 1 mg/ml bacitracin, 10 ug/ml aprotonin, 1 mg/ml soybean trypsin inhibitor and 50 μM phenylmethylsulphonyl fluoride. All subsequent steps were carried out at 4° C. The cells were pelleted by centrifugation at 750 x g for 10 minutes and resuspended 5×10^6 /ml in solution A containing 50 mM 4-(2-Hydroxyethyl)-1-piperazineethanesulfonic acid (Hepes), 5 mM MgCl2, 1 mM EGTA, 1 mg/ml bacitracin, 10 μg/ml aprotonin, 1 mg/ml soybean trypsin inhibitor and 50 μM phenylmethylsulfonyl fluoride, adjusted to pH 7.4 with NaOH at 4° C. Cells were then disrupted using a Dounce homogeniser (A pestle) 75 strokes. The homogenate was centrifuged at 500 x g for 10 minutes to remove nuclear material and intact cells and the supernatant was centrifuged again at 30000 x g for 30 minutes. The resulting pellet, representing a membrane-enriched preparation was resuspended at a protein concentration of 5 to 10 mg/ml in solution A and stored in liquid nitrogen. For experiments, membranes were thawed and diluted to a concentration of 1 mg/ml with solution A.
Receptor binding assay: Binding assays were carried out in a total volume of 100 ul in binding medium containing 50 mM Hepes, 5 mM MgCl2, 1 mg/ml bacitracin and 1% bovine serum albumin (BSA), adjusted to pH 7.4 with NaOH, unless otherwise indicated. […] Non-specific binding was subtracted from the total binding to obtain specific binding. The membranes were incubated for either 10 minutes at 37° C. or 30 minutes: at 15° C. as indicated.
The binding reactions were terminated at the specified times by rapid filtration on GF/B glass fibre filters (Whatmann, 1.0 μm pore size). Each filter was washed five times with 5 ml of PBS containing 1% BSA at 4° C. (15 s total time) using a Millipore filtration apparatus. Before the addition of membranes the filters were soaked for 24 hours in 5% polyethylenimine at 4° C. and washed with 5 ml of PBS containing 1% BSA immediately prior to use. […] Radioactivity was determined with a Beckmann γ-counter.
When 1n[(Beq - Bt)/(BoLo - Beq Bt)]is plotted as a function of time k1 can be determined from the slope by the following relation k1 =slope x [Beg/(Beg^2 - BoLo)](36) where Bo and Lo are the initial concentrations of receptor and ligand respectively. Bt is the concentration of receptor-ligand complex at time t and Beg is its concentration at equilibrium. Equation (1) takes into account the decrease in free ligand concentration that occurs during the binding reaction.
The first order rate constant of dissociation was determined from the slope of the line obtained by plotting ln(Bt/Beg) as a function of time.
The reactions were terminated and specific binding determined as described in "Experimental Procedures".

Swiss 3T3 cells [18] = test: Stimulation of DNA synthesis in Swiss 3T3 cells; type: cell-based, murine; conditions: in the presence of insulin
vasopressin receptor [19] = biological target: T3, vasopressin receptor; test: [3H]vasopressin binding to Swiss 3T3 cells; parameters: species or system murine
Mr 75,000-85,000 protein = biological target: T4, Mr 75,000-85,000 protein (Mus musculus, UniProt P21729); test: Chemical cross-linking (EGS) of 125I-GRP to the Mr 75,000-85,000 protein in Swiss 3T3 membranes; type: binding, murine; conditions: 10 min, read-out: 125I-GRP affinity labelling of the Mr 75,000-85,000 protein
T4 construct: Membrane protein (150 μg) prepared from Swiss 3T3 cells as described above; endogenous in cells; host or cells: Swiss 3T3 cells; membrane-enriched fraction prepared with 5 mM Mg2+
T4 sequence (P21729 whole entry): as the sequence (P21729 whole entry) above
Description: BSA was omitted from all solutions used in the cross-linking studies. At the end of the incubation the membranes were centrifuged at 1000 rpm for 1 minute in a MSE microfuge at room n temperature. The pellets were then resuspended in cross-linking medium containing 4 mM of the cross-linking reagent (EGS) and incubated at 37° C. or 15° C. for 5 minutes or 15 minutes respectively. The reaction was terminated by centrifugation for 1 minute followed by one wash with cross-linking medium and centrifugation. Samples were solubilised in 0.20 ml of 2× sample buffer, (0.2 M Tris-HCl pH 6.8, 10% (w/v) glycerol, 6% sodium dodecyl sulphate (SDS) (w/v), 4% β-mercaptoethanol (v/v), and 2 mM EDTA), immediately heated to 100° C. for 10 minutes and analysed by one dimensional electrophoresis.
SDS-Polyacrylaaide Gel glectrophoresis: Slab gel electrophoresis was performed using 8% acrylamide in the separating gel and 4% in the stacking gel and 0.1% SDS (37). After electrophoresis gels were stained, desrained and dried down onto paper for autoradiography with Fuji x-ray film. Dried gels were exposed for 2-4 days at -70° C. Autoradiograms were scanned using an LKB ultrascan XL densitometer; and the incorporation of radioactivity into the Mr 75,000-85,000 band was quantified using the Ultroscan XL internal digital integrator.
Following incubation at 37° C. for 10 minutes the membranes were pelleted by centrifugation and chemical cross-linking carried out as described in "Experimental Procedures" using 4 mM EGS. The samples were analyzed by SDS-PAGE and scanning densitometry of the autoradiograms as described in "Experimental Procedures".

Molecule: CC(C)C[C@@H](CN[C@@H](CC(C)C)C(N)=O)NC(=O)[C@H](Cc1c[nH]cn1)NC(=O)CNC(=O)[C@@H](NC(=O)[C@H](C)NC(=O)[C@H](Cc1c[nH]c2ccccc12)NC(=O)[C@H](CCC(N)=O)NC(=O)[C@H](CC(N)=O)NC(=O)CNC(=O)[C@H](CC(C)C)NC(=O)[C@H](CCCNC(=N)N)NC(=O)[C@H](CCC(N)=O)NC(=O)[C@@H]1CCC(=O)N1)C(C)C [[Leu^13 -.PSI.(CH2 NH)Leu^14]bombesin] ([pGlu]QRLGNQWAVGH-X1; C-terminus assumed)
- block of cross-linking of [125I]GRP to the Mr 75,000-85,000 glycoprotein [1]: blocked
- effect against DNA synthesis induced by various bombesin-like peptides (Swiss 3T3 cells [2]): effective
- inhibition of GRP-induced DNA synthesis (Swiss 3T3 cells [2]): strongly inhibited
- block of EGF receptor transmodulation elicited by GRP (Swiss 3T3 cells [3]): blocked
- IC50 [4]: 0.035 µM
- inhibition of specific binding of [125I]GRP to the cells (bombesin/GRP receptor [5]): inhibited
- inhibition of mitogenesis stimulated by EGF, PDGF, phorbol dibutyrate, cholera toxin and 8-bromo-cAMP (Swiss 3T3 cells [6]): Neither of them inhibited
- effect on bradykinin-stimulated DNA synthesis (Swiss 3T3 cells [7]; 1 μM L.PSI.LB): no effect
- inhibition of mitogenesis stimulated by VIP (Swiss 3T3 cells [8]): Neither antagonist D nor [Leu^13 -.PSI.(CH2 NH)Leu^14 ]bombesin inhibited
- inhibition of vasopressin-induced DNA synthesis (Swiss 3T3 cells [9]): no effect
- block of Ca2+ mobilisation elicited by GRP (Swiss 3T3 cells [10]): blocked

Molecule: CC(C)C[C@H](NC(=O)[C@H](CC(C)C)NC(=O)[C@@H](Cc1c[nH]c2ccccc12)NC(=O)[C@H](Cc1ccccc1)NC(=O)[C@@H](Cc1c[nH]c2ccccc12)NC(=O)[C@H](CCC(N)=O)NC(=O)[C@@H](Cc1ccccc1)NC(=O)[C@@H]1CCCN1C(=O)[C@H](CCCCN)NC(=O)[C@@H]1CCCN1C(=O)[C@H](N)CCCNC(=N)N)C(N)=O [antagonist D, D-Arg-Pro-Lys-Pro-D-Phe-Gln-D-Trp-Phe-D-Trp-Leu-Leu-NH2] (H-[dR]PKP[dF]Q[dW]F[dW]LL-NH2)
- effect against DNA synthesis induced by various bombesin-like peptides (Swiss 3T3 cells [2]; 20 μM antagonist D or 1 μm L.PSI.LB, GRP 3.6 nM, bombesin 1.2 nM, litorin 1.8 nM): effective
- inhibition of vasopressin-stimulated DNA synthesis (Swiss 3T3 cells [11]): inhibit
- potency relative to antagonist A against each mitogen [12]: 5-10 fold
- potency relative to Antagonist A in inhibiting growth of SCLC [13]: 5-10 fold
- inhibition of mitogenesis stimulated by EGF, PDGF, phorbol dibutyrate, cholera toxin and 8-bromo-cAMP (Swiss 3T3 cells [6]; 20 μM antagonist D or 1 μm L.PSI.LB): Neither of them inhibited
- IC50 (Swiss 3T3 cells [7]): 8.3 µM
- inhibition of mitogenesis stimulated by VIP (Swiss 3T3 cells [8]; VIP 3.0 nM, 20 μM antagonist D or 1 μm L.PSI.LB): Neither antagonist D nor [Leu^13 -.PSI.(CH2 NH)Leu^14 ]bombesin inhibited
- inhibition of [3H]vasopressin binding (vasopressin receptor [14]): inhibit
- inhibition of vasopressin-induced DNA synthesis (Swiss 3T3 cells [9]; 1 uM L.PSI.LB or antagonist D): potent inhibitor
- potency as bombesin antagonist relative to antagonist A (Swiss 3T3 cells [15]): 5-10 fold

Molecule: RPPGFSPFR [Bradykinin, bradykinin]
- inhibition of specific binding of [125I]GRP to the cells (bombesin/GRP receptor [5]): did not inhibit
- change in cytosolic Ca2+ concentration (Swiss 3T3 cells [16]): rapid and transient increase
- specific binding of 125I-GRP to membranes (bombesin/GRP receptor [17]): 302 ± 9 fmole/mg protein
- stimulation of DNA synthesis (Swiss 3T3 cells [18]): maximal stimulation
- inhibition of [3H]vasopressin binding (vasopressin receptor [19]): did not inhibit
- remaining activity at 1 µM (Mr 75,000-85,000 protein): 95 ± 3%
